Assay results as given in ChEMBL document CHEMBL5291721, “A preclinical secondary pharmacology resource illuminates target-adverse drug reaction associations of marketed drugs” (Nat Commun, 2023).

Experiments:
[1] = target: T1, 5-hydroxytryptamine receptor 1A (Homo sapiens, UniProt P08908)
T1 sequence (P08908 whole entry): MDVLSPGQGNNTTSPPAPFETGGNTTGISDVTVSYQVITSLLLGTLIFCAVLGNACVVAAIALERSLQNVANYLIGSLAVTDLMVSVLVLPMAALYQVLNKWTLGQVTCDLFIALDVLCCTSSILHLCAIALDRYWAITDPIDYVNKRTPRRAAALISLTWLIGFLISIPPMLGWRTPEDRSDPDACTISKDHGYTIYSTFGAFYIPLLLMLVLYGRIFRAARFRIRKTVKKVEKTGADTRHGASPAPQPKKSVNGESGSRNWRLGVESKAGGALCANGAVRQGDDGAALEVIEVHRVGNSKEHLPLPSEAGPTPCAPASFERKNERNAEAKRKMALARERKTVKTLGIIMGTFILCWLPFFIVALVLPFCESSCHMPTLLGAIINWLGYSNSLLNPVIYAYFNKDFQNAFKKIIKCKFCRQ

Prothrombin = Prothrombin (Homo sapiens, UniProt P00734); type: functional
Histamine H3 receptor = Histamine H3 receptor (Homo sapiens, UniProt Q9Y5N1)
Chain of Histamine H3 receptor (Q9Y5N1 whole entry): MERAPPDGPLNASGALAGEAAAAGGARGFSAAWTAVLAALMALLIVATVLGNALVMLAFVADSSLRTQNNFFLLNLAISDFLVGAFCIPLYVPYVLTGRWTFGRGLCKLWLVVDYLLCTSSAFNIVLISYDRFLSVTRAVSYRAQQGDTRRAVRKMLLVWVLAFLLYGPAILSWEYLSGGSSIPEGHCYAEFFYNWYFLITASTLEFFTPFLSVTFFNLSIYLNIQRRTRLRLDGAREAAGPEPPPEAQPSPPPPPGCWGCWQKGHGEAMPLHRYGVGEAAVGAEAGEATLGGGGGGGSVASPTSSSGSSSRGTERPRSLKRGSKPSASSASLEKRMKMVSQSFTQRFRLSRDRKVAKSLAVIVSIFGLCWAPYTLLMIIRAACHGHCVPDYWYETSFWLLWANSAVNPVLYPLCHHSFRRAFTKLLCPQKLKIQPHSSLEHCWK

[2] = target: T2, Amine oxidase [flavin-containing] A (Homo sapiens, UniProt P21397); type: functional
T2 sequence (P21397 whole entry): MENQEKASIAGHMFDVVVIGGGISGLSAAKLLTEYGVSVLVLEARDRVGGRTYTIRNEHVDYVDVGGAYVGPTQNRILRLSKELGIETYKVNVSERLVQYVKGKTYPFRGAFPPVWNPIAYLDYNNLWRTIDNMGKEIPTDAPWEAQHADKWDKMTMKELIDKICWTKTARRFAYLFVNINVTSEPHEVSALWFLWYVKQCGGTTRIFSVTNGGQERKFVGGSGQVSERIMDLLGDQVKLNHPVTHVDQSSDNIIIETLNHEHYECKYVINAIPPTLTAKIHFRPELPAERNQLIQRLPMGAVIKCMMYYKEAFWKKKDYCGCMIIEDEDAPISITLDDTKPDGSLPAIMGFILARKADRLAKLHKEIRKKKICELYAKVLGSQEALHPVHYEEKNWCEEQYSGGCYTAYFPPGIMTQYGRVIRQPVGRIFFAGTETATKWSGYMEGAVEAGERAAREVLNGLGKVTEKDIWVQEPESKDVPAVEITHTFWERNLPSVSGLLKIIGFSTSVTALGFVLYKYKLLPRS

Thromboxane A2 receptor [3] = target: T3, Thromboxane A2 receptor (Homo sapiens, UniProt P21731); type: functional, cell-based
T3 sequence (P21731 whole entry): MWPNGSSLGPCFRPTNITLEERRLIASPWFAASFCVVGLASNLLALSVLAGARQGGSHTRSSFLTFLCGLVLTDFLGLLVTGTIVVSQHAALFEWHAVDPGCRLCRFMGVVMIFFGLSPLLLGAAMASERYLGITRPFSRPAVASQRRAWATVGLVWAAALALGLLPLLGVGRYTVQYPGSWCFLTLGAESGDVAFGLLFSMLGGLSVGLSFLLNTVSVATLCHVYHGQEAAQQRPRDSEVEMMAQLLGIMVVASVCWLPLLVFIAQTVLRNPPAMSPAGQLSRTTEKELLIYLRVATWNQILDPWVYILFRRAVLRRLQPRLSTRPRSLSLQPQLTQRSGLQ

[4] = target: 3',5'-cyclic-AMP phosphodiesterase 4A (Homo sapiens, UniProt P27815); type: functional
Chain of 3',5'-cyclic-AMP phosphodiesterase 4A (P27815 whole entry): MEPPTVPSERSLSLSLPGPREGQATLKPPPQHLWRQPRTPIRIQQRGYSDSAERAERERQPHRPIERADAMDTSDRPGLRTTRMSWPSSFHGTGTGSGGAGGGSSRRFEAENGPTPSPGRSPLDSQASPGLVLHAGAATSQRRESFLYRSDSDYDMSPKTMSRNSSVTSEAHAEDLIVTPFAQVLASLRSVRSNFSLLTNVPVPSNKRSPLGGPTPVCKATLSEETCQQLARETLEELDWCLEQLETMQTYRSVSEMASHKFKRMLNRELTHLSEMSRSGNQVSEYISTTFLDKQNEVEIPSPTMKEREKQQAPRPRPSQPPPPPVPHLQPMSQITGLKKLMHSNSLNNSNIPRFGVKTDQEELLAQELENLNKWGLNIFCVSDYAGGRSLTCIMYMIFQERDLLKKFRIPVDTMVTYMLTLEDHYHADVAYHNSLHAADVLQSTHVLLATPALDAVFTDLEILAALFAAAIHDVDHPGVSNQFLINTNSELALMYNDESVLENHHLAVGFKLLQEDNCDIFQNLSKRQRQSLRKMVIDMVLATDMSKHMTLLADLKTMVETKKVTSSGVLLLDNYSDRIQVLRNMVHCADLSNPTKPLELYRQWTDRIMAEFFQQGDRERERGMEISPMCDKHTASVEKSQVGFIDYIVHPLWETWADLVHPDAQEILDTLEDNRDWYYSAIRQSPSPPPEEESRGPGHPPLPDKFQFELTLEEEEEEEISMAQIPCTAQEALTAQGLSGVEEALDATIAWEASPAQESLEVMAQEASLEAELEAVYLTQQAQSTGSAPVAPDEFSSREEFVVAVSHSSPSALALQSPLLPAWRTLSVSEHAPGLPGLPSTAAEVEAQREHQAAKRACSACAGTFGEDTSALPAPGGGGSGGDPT

[5] = target: T4, Muscarinic acetylcholine receptor M2 (Homo sapiens, UniProt P08172)
T4 sequence (P08172 whole entry): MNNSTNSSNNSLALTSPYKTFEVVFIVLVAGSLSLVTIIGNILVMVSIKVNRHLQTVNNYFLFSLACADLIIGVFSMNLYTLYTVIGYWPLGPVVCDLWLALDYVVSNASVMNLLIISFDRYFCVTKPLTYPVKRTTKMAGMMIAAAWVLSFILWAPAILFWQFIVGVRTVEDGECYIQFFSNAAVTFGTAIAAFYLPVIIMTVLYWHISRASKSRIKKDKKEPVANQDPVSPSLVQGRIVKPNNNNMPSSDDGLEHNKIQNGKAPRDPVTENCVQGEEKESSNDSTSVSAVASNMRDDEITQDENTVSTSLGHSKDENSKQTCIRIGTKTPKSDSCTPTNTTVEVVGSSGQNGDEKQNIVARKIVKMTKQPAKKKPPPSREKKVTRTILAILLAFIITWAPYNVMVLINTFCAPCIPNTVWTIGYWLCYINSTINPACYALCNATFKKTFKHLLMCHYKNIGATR

[6] = target: 5-hydroxytryptamine receptor 2B (Homo sapiens, UniProt P41595); type: functional, cell-based
[7] = target: Voltage-gated inwardly rectifying potassium channel KCNH2 (Homo sapiens, UniProt Q12809); type: functional
Thromboxane A2 receptor [8] = target: T3, Thromboxane A2 receptor; type: functional, cell-based; remark: listed apart in the source
[9] = target: Sodium-dependent dopamine transporter (Homo sapiens, UniProt Q01959)
Chain of Sodium-dependent dopamine transporter (Q01959 whole entry): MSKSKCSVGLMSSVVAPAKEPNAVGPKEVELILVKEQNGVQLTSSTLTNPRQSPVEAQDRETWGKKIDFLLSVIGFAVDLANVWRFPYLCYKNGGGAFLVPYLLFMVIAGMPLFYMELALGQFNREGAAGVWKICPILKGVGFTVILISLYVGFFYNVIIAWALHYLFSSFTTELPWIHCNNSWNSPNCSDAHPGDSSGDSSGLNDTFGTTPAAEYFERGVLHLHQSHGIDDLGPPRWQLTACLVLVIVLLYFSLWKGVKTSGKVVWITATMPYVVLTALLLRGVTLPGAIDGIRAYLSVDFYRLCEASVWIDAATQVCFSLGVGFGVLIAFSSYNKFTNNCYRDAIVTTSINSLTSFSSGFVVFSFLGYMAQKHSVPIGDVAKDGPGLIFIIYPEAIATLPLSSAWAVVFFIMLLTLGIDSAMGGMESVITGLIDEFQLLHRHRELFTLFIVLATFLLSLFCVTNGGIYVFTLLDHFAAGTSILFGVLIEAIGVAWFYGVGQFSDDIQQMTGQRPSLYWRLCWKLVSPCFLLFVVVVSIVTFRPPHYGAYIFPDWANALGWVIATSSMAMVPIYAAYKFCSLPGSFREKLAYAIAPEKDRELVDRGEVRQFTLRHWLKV

Acetylcholinesterase = Acetylcholinesterase (Homo sapiens, UniProt P22303); type: functional
Chain of Acetylcholinesterase (P22303 whole entry): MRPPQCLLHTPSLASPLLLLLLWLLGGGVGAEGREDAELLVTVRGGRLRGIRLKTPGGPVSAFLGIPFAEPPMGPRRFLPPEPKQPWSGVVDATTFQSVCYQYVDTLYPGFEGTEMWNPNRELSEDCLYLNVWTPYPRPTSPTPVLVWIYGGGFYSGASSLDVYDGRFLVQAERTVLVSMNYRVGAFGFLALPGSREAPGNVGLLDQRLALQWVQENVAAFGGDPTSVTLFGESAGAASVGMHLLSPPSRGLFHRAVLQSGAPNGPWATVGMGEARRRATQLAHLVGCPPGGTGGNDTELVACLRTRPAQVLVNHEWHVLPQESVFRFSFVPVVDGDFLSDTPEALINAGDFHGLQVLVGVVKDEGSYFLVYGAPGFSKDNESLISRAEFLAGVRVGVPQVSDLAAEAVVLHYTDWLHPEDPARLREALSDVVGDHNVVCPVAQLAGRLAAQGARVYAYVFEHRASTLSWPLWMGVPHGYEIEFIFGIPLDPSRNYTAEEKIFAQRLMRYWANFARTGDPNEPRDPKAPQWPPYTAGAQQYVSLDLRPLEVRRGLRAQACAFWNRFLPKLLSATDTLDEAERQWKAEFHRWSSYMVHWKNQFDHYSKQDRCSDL

[10] = target: Vascular endothelial growth factor receptor 2 (Homo sapiens, UniProt P35968); type: functional
Chain of Vascular endothelial growth factor receptor 2 (P35968 whole entry): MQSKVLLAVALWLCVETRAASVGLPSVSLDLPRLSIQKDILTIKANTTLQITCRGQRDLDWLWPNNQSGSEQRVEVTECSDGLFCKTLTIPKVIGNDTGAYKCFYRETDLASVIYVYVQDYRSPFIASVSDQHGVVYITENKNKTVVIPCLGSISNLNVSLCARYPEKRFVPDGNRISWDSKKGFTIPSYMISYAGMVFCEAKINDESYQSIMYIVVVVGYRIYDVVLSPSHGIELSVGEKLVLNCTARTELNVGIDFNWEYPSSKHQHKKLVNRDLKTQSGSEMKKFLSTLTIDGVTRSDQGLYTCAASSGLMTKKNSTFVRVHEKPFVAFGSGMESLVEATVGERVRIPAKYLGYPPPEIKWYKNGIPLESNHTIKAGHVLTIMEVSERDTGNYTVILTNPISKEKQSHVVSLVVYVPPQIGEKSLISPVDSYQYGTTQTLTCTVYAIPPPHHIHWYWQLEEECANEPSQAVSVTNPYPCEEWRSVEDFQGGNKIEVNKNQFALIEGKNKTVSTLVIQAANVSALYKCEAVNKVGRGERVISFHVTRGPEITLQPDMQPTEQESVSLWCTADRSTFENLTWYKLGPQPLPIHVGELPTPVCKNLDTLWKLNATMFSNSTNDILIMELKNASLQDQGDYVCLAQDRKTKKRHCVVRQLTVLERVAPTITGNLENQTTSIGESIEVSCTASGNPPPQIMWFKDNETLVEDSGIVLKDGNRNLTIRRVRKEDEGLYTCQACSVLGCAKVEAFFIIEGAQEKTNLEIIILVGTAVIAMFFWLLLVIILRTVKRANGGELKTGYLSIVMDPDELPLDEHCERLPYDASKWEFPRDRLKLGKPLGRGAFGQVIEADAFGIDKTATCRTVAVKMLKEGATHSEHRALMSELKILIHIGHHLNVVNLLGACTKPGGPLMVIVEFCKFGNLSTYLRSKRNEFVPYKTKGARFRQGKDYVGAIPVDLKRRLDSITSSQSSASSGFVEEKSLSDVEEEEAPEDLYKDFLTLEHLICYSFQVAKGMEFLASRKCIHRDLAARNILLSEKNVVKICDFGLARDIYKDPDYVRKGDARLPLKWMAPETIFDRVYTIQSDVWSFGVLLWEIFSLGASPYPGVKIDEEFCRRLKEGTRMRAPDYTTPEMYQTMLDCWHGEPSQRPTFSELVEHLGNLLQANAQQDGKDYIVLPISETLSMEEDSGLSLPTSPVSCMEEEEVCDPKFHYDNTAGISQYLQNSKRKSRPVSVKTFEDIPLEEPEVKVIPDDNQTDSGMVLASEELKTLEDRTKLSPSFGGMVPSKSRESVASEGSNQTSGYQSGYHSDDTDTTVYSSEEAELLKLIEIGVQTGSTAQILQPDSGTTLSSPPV

[11] = target: cGMP-inhibited 3',5'-cyclic phosphodiesterase 3A (Homo sapiens, UniProt Q14432); type: functional
Chain of cGMP-inhibited 3',5'-cyclic phosphodiesterase 3A (Q14432 whole entry): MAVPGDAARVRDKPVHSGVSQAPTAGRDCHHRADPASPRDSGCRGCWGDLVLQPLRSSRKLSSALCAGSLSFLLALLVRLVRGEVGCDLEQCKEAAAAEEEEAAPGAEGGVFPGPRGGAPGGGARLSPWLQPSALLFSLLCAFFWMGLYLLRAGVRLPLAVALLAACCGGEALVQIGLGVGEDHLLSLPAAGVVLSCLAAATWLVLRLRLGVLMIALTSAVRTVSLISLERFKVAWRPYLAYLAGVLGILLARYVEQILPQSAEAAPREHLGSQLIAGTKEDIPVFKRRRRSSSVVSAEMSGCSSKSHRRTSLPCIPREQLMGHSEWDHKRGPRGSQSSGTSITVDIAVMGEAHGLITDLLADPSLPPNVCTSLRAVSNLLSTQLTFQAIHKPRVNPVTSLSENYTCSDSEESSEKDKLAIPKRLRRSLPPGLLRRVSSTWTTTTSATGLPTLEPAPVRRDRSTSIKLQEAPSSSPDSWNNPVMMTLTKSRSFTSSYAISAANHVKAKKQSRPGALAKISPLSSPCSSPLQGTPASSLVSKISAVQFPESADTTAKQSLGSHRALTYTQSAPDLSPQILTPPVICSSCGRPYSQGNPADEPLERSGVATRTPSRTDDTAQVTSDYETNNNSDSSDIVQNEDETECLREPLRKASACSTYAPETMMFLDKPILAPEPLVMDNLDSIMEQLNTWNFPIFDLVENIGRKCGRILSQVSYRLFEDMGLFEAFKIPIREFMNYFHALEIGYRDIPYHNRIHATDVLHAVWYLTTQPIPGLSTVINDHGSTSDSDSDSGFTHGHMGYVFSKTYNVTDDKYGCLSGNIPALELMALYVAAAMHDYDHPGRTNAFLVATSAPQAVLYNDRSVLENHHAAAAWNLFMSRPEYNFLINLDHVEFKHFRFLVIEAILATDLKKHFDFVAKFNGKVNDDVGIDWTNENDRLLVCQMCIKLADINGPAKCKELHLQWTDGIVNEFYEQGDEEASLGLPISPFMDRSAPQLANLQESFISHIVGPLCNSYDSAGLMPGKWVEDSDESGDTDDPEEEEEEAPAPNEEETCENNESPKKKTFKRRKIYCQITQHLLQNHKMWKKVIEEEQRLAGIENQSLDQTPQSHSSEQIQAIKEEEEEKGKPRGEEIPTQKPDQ

[12] = target: T5, Alpha-2A adrenergic receptor (Homo sapiens, UniProt P08913)
T5 sequence (P08913 whole entry): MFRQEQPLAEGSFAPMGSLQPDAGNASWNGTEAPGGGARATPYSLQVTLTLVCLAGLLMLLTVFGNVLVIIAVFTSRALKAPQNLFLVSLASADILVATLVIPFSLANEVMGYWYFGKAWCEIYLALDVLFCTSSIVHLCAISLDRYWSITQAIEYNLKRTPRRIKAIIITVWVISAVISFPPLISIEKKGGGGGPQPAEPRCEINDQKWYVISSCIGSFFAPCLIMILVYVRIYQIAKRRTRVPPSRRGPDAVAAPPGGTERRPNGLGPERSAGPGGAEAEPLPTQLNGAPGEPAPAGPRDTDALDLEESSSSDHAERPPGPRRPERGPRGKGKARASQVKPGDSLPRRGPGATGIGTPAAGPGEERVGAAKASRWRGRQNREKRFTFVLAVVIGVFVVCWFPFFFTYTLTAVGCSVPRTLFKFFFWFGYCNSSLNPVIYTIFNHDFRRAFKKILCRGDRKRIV
Note: assay procedure not described here.

Compound	AC50 [1]	AC50 (Prothrombin)	AC50 (Histamine H3 receptor)	AC50 [2]	AC50 (Thromboxane A2 receptor [3])	AC50 [4]	AC50 [5]	AC50 [6]	AC50 [7]	AC50 (Thromboxane A2 receptor [8])	AC50 [9]	AC50 (Acetylcholinesterase)	AC50 [10]	AC50 [11]	AC50 [12]
CC(=O)OCC(=O)[C@@]1(O)CC[C@H]2[C@@H]3CCC4=CC(=O)CC[C@]4(C)[C@H]3[C@@H](O)C[C@@]21C [HYDROCORTISONE ACETATE]	> 30 µM	> 30 µM	> 30 µM	> 30 µM	> 30 µM	> 30 µM	> 30 µM	> 30 µM	> 30 µM	> 30 µM	> 30 µM	> 30 µM	> 30 µM	> 30 µM	> 30 µM
CC(COc1ccccc1)NC(C)C(O)c1ccc(O)cc1 (stereo not given) [ISOXSUPRINE]	0.203 µM	> 30 µM	> 30 µM	> 10 µM	> 30 µM	> 30 µM	> 30 µM	> 30 µM	15 µM	> 30 µM	0.625 µM	> 30 µM	> 30 µM	> 30 µM	0.446 µM
Cc1oc(=O)oc1COC(=O)[C@@H]1N2C(=O)[C@@H](NC(=O)[C@H](N)c3ccccc3)[C@H]2SC1(C)C [LENAMPICILLIN]	> 30 µM	> 30 µM	> 30 µM	> 30 µM	> 30 µM	> 30 µM	> 30 µM	> 30 µM	> 30 µM	24.9 µM	> 30 µM	> 30 µM	> 30 µM	> 30 µM	> 30 µM
COc1ccc(OC)c(C(O)C(C)N)c1 (stereo not given) [METHOXAMINE]	> 30 µM	> 30 µM	> 30 µM	> 30 µM	> 30 µM	> 30 µM	> 30 µM	> 30 µM	> 30 µM	> 30 µM	> 30 µM	> 30 µM	> 30 µM	> 30 µM	25.9 µM
CC1(CCN2CCCCC2)C(=O)CCc2ccccc21 (stereo not given) [NEPINALONE]	> 30 µM	> 30 µM	> 30 µM	> 30 µM	> 30 µM	> 30 µM	7.14 µM	> 30 µM	> 30 µM	> 30 µM	> 30 µM	> 30 µM	> 30 µM	> 30 µM	18.3 µM
COc1cccc(C(=O)CCN[C@@H](C)[C@H](O)c2ccccc2)c1 [OXYFEDRINE]	0.0096 µM	> 30 µM	> 30 µM	> 30 µM	> 30 µM	> 30 µM	> 30 µM	> 30 µM	10 µM	> 30 µM	2.97 µM	> 30 µM	> 30 µM	> 30 µM	5.96 µM
